This is an account of results in patent publication US20220153751A1, “BIFUNCTIONAL COMPOUNDS” (BioTheryX, Inc., priority 2018, published 2022).

Format in all cases: cell-based
The test system of one test is IL-1β. Briefly: IL-1β inhibition assay, LPS-induced PBMCs / CD14+ monocytes (Meso Scale). The settings on record: 1 h pretreatment, 100 ng/mL LPS 18-24 h. As for the experimental part:
(§1) Either frozen primary blood mononuclear cells (PBMCs) or frozen CD14+ mobilized peripheral blood monocytes were purchased from AllCells (PB003F, Normal Peripheral Blood MNC (Alameda, Calif.)). Cells were quick thawed, washed 1-time with RPMI-1640 (10% FBS/1% Pen-Strep) and plated in 96 well plates at 200,000 cells per well. Cells were pretreated with DMSO only or with the indicated compound for 1 h and then induced with 100 ng/mL lipopolysaccharide (LPS) for 18-24 h. The supernatant was analyzed for IL-1β, IL-6, and TNFα, using Meso Scale assay according to manufacturer's protocol. The negative control wells were treated with DMSO.
(§2) In Table 6, the % inhibition values are reported as “A”, “B”, “C”, or “D”. “A” represents a % inhibition value of less than 50% (value <50%). “B” represents a % inhibition value of equal to or more than 50% and less than 70% (50%≤value<70%). “C” represents a % inhibition value of equal to or more than 70% and less than 90% (70%≤value<90%). “D” represents a % inhibition value of equal or more than 90% (value ≥90%). In Table 7, the fold-change values are reported as “A”, “B”, “C”, or “D”. “A” represents a fold-change value of equal to or less than 0.1 (value ≤0.1). “B” represents a fold-change value of more than 0.1 and equal to or less than 0.5 (0.1<value≤0.5). “C” represents a fold-change value of more than 0.5 and equal to or less than 1 (0.5<value≤1). “D” represents a fold-change value of more than 1 (value >1).

A further test relates to IL-6. Nature of the test: IL-6 inhibition assay, LPS-induced PBMCs / CD14+ monocytes (Meso Scale). The settings on record: 1 h pretreatment, 100 ng/mL LPS 18-24 h. The method, then:
as §1, §2

The next test deals with TNF-α. Nature of the test: TNF-α inhibition assay, LPS-induced PBMCs / CD14+ monocytes (Meso Scale). To be noted: 1 h pretreatment, 100 ng/mL LPS 18-24 h. The method, then: as §1, §2
In the next test the test system is MOLM-13 cells. Briefly: MOLM-13 cell viability assay (CellTiter-Glo). To be noted: Homo sapiens, MOLM-13, 72 h, 3 days, read-out: MOLM-13 Cell Viability % DMSO at 1 μM. The method, then: MOLM-13 cells were cultured in RPMI 1640 media supplemented with 10% fetal bovine serum, streptomycin and penicillin, and were plated in walled 96-well plates at 2500 cells/well. Cells were incubated in DMSO (control) or the indicated compound for 3 days at 37° C. and 5% CO2. Following the incubation period, 100 μL of CellTiterGlow (CTG) reagent (CellTiter-Glo® Luminescent Cell Viability Assay, Promega (Madison, Wis.)) was added to each well. Following a 10 minutes incubation with shaking, luminescence was measured using the EnVision Multimode plate reader.
The MOLM-13 cell viability values as % DMSO are reported as “A”, “B”, “C”, or “D”. “A” represents a % viability value of less than 50% (value <50%). “B” represents a % viability value of equal to or more than 50% and less than 70% (50%≤value<70%). “C” represents a % viability value of equal to or more than 70% and less than 90% (70%≤value<90%). “D” represents a % viability value of equal or more than 90% (value ≥90%).
(Cellular ATP, detected with luciferase, serves as a proxy for viable cell number.)

In another test the target is T1, IKAROS (Homo sapiens, UniProt Q13422+Q96SW2).
T1 construct: endogenous in cells; host or cells: MV-4-11
Nature of the test: IKAROS degradation assay (Western blot, MV-4-11 cells). To be noted: MV4-11, 6-8 h. The method, then: (§3) MV-4-11 cells were grown in RPMI 1640 media supplemented with 10% fetal bovine serum, streptomycin and penicillin.
(§4) Cells were cultured at approximately 10^6 cells per mL and incubated in DMSO or the indicated compound for 6-8 h. Whole cell extracts were prepared using RIPA buffer according to manufacturer's protocol (Pierce). Briefly, 3×10^6 cells were washed once in PBS, the cell pellets were resuspended in RIPA buffer and allowed to incubate for 15 minutes on ice. Cells debris was removed by centrifugation and the cleared whole cell lysates were transferred to new tubes for further analysis.
(§5) For Western blot analysis, whole cell protein extracts were separated on 4-12% SDS-polyacrylamide gels, transferred to nitrocellulose and probed with the indicated primary antibodies. Membranes were subsequently washed and probed with the appropriate IRDye secondary antibodies (LI-COR). The signal was detected using the Odyssey Imaging System (LI-COR).
(§6) The following antibodies were used in these studies: Anti-eRF3/GSPT1: Abcam, ab126090 (Cambridge, Mass.); Anti-Ikaros: Abcam, ab191394 (Cambridge, Mass.); Anti-CK1α: Abcam, ab108296 (Cambridge, Mass.); Anti-CDK9: Santa Cruz Biotechnology, sc13130 (Dallas, Tex.); Anti-CDK16: Millipore Sigma, HPA001366 (St. Louis, Mo.); 3-actin (8H10comD10) mouse monoclonal antibody: Cell Signaling Technology, #3700 (Danvers, Mass.); IRDye 680RD Goat anti-rabbit antibody: LI-COR, 926-68071 (Lincoln, Nebr.); IRDye 800CW Goat anti-mouse antibody: LI-COR, 926-32210 (Lincoln, Nebr.).
(§7) CDK9 activities are shown in Table 4 at two different concentrations. CDK16 activities are shown in Table 5 at two different concentrations. In each of Tables 1-5, the % degradation values are reported as “A”, “B”, “C”, or “D”. “A” represents a % degradation value of less than 25% (value <25%). “B” represents a % degradation value of equal to or more than 25% and less than 50% (25%≤value<50%). “C” represents a % degradation value of equal to or more than 50% and less than 75% (50%≤value<75%). “D” represents a % degradation value of equal to or more than 75% (value ≥75%).

The next test addresses T2, CDK9 (Homo sapiens, UniProt P50750).
T2 construct: Whole cell extracts were prepared using RIPA buffer; endogenous in cells; host or cells: MV-4-11
Nature of the test: CDK9 degradation assay (Western blot, MV-4-11 cells). The settings on record: 6-8 h; for Dmax at 0.1 µM: MV4-11, 0.1 μM; for Dmax at 1 µM: MV4-11, 1 μM. As for the experimental part: as §3, §4, §5, §6, §7
(Immunoblotting shows a protein as a band on a membrane.)

The next test concerns the target T3, CDK16 (Homo sapiens, UniProt Q00536).
T3 construct: Whole cell extracts were prepared using RIPA buffer; endogenous in cells; host or cells: MV-4-11
Nature of the test: CDK16 degradation assay (Western blot, MV-4-11 cells). To be noted: 6-8 h; for Dmax at 0.1 µM: MV4-11, 0.1 μM; for Dmax at 1 µM: MV4-11, 1 μM. As for the experimental part: as §3, §4, §5, §6, §7

T3 sequence (Q00536 whole entry): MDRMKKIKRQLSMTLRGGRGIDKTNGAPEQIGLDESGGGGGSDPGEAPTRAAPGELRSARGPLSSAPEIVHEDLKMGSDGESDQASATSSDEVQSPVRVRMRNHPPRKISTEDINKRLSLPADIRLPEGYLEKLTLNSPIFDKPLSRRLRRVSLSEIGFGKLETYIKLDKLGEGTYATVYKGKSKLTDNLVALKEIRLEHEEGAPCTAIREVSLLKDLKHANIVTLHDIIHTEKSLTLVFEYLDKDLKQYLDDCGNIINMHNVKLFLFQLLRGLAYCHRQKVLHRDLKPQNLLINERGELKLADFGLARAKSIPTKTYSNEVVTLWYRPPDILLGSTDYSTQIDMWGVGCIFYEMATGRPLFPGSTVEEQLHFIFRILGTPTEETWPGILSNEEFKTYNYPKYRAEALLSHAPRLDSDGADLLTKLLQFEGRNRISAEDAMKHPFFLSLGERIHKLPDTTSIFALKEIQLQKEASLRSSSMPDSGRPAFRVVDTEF
T2 sequence (P50750 whole entry): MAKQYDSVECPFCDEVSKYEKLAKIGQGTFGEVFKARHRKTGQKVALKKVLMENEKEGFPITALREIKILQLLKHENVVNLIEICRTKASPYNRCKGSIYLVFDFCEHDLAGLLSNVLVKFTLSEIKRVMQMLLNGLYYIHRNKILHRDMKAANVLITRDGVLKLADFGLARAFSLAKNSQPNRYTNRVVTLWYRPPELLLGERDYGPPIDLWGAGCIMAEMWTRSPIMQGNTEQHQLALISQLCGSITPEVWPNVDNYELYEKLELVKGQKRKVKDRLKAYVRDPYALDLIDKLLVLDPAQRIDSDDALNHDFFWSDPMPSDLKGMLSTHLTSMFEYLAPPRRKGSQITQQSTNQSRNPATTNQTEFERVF
T1 sequence (Q13422 whole entry): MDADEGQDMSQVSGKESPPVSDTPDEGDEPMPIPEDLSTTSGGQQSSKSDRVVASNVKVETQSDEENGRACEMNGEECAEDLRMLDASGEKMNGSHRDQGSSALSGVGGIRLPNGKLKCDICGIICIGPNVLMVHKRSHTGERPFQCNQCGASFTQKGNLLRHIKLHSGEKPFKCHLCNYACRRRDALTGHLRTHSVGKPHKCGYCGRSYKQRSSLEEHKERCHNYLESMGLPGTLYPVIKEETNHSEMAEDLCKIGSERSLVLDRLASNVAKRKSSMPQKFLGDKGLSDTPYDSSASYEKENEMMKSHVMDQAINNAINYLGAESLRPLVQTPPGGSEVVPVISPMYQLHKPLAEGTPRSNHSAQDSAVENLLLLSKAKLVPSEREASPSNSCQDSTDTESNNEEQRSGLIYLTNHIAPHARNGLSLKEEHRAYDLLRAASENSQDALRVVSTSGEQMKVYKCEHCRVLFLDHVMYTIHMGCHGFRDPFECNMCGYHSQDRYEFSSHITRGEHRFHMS
T1 sequence (Q96SW2 whole entry): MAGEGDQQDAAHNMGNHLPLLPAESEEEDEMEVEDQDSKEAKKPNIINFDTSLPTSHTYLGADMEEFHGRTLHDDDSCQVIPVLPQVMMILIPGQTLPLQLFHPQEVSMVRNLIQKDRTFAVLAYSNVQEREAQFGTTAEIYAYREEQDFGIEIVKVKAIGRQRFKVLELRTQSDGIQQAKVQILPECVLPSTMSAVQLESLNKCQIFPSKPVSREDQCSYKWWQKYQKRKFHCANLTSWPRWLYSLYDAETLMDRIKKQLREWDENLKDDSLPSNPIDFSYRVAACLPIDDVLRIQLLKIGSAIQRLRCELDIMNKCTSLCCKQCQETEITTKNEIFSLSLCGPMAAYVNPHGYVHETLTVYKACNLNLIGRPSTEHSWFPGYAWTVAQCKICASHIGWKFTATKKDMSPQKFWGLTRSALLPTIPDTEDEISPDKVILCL
T1 sequence (Q16531 whole entry partner): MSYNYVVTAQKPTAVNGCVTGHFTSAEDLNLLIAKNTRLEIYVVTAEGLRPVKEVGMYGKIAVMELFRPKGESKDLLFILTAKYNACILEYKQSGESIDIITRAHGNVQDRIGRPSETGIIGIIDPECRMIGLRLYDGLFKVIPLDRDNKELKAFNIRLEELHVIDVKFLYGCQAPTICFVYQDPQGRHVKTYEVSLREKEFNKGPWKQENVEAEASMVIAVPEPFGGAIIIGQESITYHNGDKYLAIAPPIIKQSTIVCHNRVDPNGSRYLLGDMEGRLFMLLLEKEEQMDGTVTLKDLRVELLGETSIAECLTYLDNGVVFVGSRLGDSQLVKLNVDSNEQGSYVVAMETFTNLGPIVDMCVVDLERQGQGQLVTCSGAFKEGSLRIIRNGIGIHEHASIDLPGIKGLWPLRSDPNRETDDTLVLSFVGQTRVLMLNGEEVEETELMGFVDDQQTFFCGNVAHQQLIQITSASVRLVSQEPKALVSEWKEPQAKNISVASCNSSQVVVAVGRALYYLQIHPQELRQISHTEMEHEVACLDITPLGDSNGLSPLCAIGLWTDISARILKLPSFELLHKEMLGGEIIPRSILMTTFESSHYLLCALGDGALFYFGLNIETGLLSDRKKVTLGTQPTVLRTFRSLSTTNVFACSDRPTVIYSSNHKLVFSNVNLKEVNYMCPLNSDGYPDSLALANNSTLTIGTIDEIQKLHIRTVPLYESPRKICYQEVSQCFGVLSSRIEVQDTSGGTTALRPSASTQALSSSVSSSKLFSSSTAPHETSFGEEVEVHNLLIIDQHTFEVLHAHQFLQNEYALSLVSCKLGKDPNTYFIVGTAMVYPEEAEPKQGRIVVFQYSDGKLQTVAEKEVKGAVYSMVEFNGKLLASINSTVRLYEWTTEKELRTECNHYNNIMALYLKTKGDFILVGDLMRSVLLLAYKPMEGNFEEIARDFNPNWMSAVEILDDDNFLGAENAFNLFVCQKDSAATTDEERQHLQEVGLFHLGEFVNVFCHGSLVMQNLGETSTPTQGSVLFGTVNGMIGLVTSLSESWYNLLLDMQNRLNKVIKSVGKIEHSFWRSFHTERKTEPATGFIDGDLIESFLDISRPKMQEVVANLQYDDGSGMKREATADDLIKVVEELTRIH

As for `Cn1ncc(-c2nc(N[C@H]3CC[C@H](NC(=O)CCCCCCNC(=O)NCc4cc5c(s4)C(=O)N(C4CCC(=O)NC4=O)C5)CC3)ncc2Cl)c1CC1CC1` (stereo partly drawn) [Compound 5, N-((1r,4r)-4-((5-chloro-4-(5-(cyclopropylmethyl)-1-methyl-1H-pyrazol-4-yl)pyrimidin-2-yl)amino)cyclohexyl)-7-(3-((5-(2,6-dioxopiperidin-3-yl)-6-oxo-5,6-dihydro-4H-thieno[2,3-c]pyrrol-2-yl)methyl)ureido)heptanamide], the inhibition at 1 µM is > 90% in the test on IL-1β, > 90% in the test on IL-6 and 70 to 90% with TNF-α. For the same compound, the viability at 1 µM with MOLM-13 cells was > 90%.
As to `CC(C)(C)c1cnc(CSc2cnc(NC(=O)C3CCN(CC(=O)NCCOCCOCCOCCNc4cccc5c4C(=O)N(C4CCC(=O)NC4=O)C5=O)CC3)s2)o1` (stereo not drawn) [Compound 10, N-(5-(((5-(tert-butyl)oxazol-2-yl)methyl)thio)thiazol-2-yl)-1-(14-((2-(2,6-dioxopiperidin-3-yl)-1,3-dioxoisoindolin-4-yl)amino)-2-oxo-6,9,12-trioxa-3-azatetradecyl)piperidine-4-carboxamide], on IKAROS, the Dmax at 1 µM lay in the range of 50 to 75%.
Take `CC(C)(C)c1cnc(CSc2cnc(NC(=O)C3CCN(CCOCCOCCNC(=O)NCc4cc5c(s4)C(=O)N(C4CCC(=O)NC4=O)C5)CC3)s2)o1` (stereo not drawn) [Compound 19, N-(5-(((5-(tert-butyl)oxazol-2-yl)methyl)thio)thiazol-2-yl)-1-(1-(5-(2,6-dioxopiperidin-3-yl)-6-oxo-5,6-dihydro-4H-thieno[2,3-c]pyrrol-2-yl)-3-oxo-7,10-dioxa-2,4-diazadodecan-12-yl)piperidine-4-carboxamide]: the inhibition at 1 µM in the test on IL-1β was > 90%; in the test on IL-6 it was > 90%; in the test on TNF-α, 70 to 90%. In the test on MOLM-13 cells, the viability at 1 µM fell in the range of 70 to 90%.
Turning to `CC(C)(C)c1cnc(CSc2cnc(NC(=O)C3CCN(CCCCCCCCNC(=O)NCc4cc5c(s4)C(=O)N(C4CCC(=O)NC4=O)C5)CC3)s2)o1` (stereo not drawn) [Compound 20, N-(5-(((5-(tert-butyl)oxazol-2-yl)methyl)thio)thiazol-2-yl)-1-(8-(3-((5-(2,6-dioxopiperidin-3-yl)-6-oxo-5,6-dihydro-4H-thieno[2,3-c]pyrrol-2-yl)methyl)ureido)octyl)piperidine-4-carboxamide], the Dmax at 1 µM at IKAROS was in the range of 50 to 75%. Further, in the test with MOLM-13 cells, the viability at 1 µM was > 90%.
As for `Cn1ncc(-c2nc(N[C@H]3CC[C@H](NCCCCCCNC(=O)NCc4cc5c(s4)C(=O)N(C4CCC(=O)NC4=O)C5)CC3)ncc2Cl)c1CC1CC1` (stereo partly drawn) [Compound 24, 1-(6-(((1r,4r)-4-((5-chloro-4-(5-(cyclopropylmethyl)-1-methyl-1H-pyrazol-4-yl)pyrimidin-2-yl)amino)cyclohexyl)amino)hexyl)-3-((5-(2,6-dioxopiperidin-3-yl)-6-oxo-5,6-dihydro-4H-thieno[2,3-c]pyrrol-2-yl)methyl)urea], the greatest degradation seen (Dmax) at 1 µM at IKAROS was 25 to 50%; on CDK9, ≥ 75%; on CDK16, ≥ 75%. Moreover, the Dmax at 0.1 µM on CDK9 and at CDK16 was 50 to 75% throughout. The viability at 1 µM with MOLM-13 cells is > 90%.
With `Cn1ncc(-c2nc(N[C@H]3CC[C@H](NCC(=O)NCCCCCNCC(=O)NCc4cc5c(s4)C(=O)N(C4CCC(=O)NC4=O)C5)CC3)ncc2F)c1CC1CC1` (stereo partly drawn) [Compound 25, 2-(((1r,4r)-4-((4-(5-(cyclopropylmethyl)-1-methyl-1H-pyrazol-4-yl)-5-fluoropyrimidin-2-yl)amino)cyclohexyl)amino)-N-(5-((2-(((5-(2,6-dioxopiperidin-3-yl)-6-oxo-5,6-dihydro-4H-thieno[2,3-c]pyrrol-2-yl)methyl)amino)-2-oxoethyl)amino)pentyl)acetamide], the Dmax at 1 µM is 25 to 50% on IKAROS, 50 to 75% at CDK9 and 50 to 75% on CDK16. The same compound yielded a maximal degradation (Dmax) at 0.1 µM on CDK9 of 50 to 75%. Moreover, the viability at 1 µM in the test with MOLM-13 cells was > 90%.
On IKAROS, `CC(C)(C)c1cnc(CSc2cnc(NC(=O)C3CCN(CC(=O)NCCCCCNC(=O)NCc4cc5c(s4)C(=O)N(C4CCC(=O)NC4=O)C5=O)CC3)s2)o1` (stereo not drawn) [Compound 27, N-(5-(((5-(tert-butyl)oxazol-2-yl)methyl)thio)thiazol-2-yl)-1-(2-((5-(3-((5-(2,6-dioxopiperidin-3-yl)-4,6-dioxo-5,6-dihydro-4H-thieno[2,3-c]pyrrol-2-yl)methyl)ureido)pentyl)amino)-2-oxoethyl)piperidine-4-carboxamide] gave a Dmax at 1 µM of 25 to 50%. Also, in the test with MOLM-13 cells, the viability at 1 µM is > 90%.
With `Cn1ncc(-c2nc(N[C@H]3CC[C@H](NCC(=O)NCCCCNCC(=O)NCc4cc5c(s4)C(=O)N(C4CCC(=O)NC4=O)C5=O)CC3)ncc2Cl)c1CC1CC1` (stereo partly drawn) [Compound 36, 2-(((1r,4r)-4-((5-chloro-4-(5-(cyclopropylmethyl)-1-methyl-1H-pyrazol-4-yl)pyrimidin-2-yl)amino)cyclohexyl)amino)-N-(4-((2-(((5-(2,6-dioxopiperidin-3-yl)-4,6-dioxo-5,6-dihydro-4H-thieno[2,3-c]pyrrol-2-yl)methyl)amino)-2-oxoethyl)amino)butyl)acetamide], the Dmax at 0.1 µM at CDK9 and at CDK16 was < 25% in each case. Further, the Dmax at 1 µM on CDK9 and at CDK16 was 25 to 50% each time. Moreover, the inhibition at 1 µM in the test on IL-1β, in the test on IL-6 and with TNF-α was 70 to 90% in each case. The viability at 1 µM with MOLM-13 cells lay in the range of 50 to 70%.
Turning to `CN(CCNCC(=O)NCc1scc2c1CN(C1CCC(=O)NC1=O)C2=O)CCNC(=O)CN1CCC(C(=O)Nc2ncc(SCc3ncc(C(C)(C)C)o3)s2)CC1` (stereo not drawn) [Compound 44, N-(5-(((5-(tert-butyl)oxazol-2-yl)methyl)thio)thiazol-2-yl)-1-(1-(5-(2,6-dioxopiperidin-3-yl)-4-oxo-5,6-dihydro-4H-thieno[3,4-c]pyrrol-1-yl)-8-methyl-3,12-dioxo-2,5,8,11-tetraazatridecan-13-yl)piperidine-4-carboxamide], the inhibition at 1 µM is 50 to 70% in the test with IL-1β, < 50% in the test with IL-6 and 50 to 70% with TNF-α. Moreover, the viability at 1 µM with MOLM-13 cells was 50 to 70%.

As a reminder, the inhibition is how much of the control response was suppressed. As a reminder, the viability is a per cent measure of how many cells are alive, often set against a control. A word on the Dmax: it is the greatest extent of degradation seen. A higher Dmax goes with a fuller loss of target.
